Molecular target: T1, vitamin D receptor (VDR) (Homo sapiens, UniProt P11473)
T1 sequence (P11473 118-427): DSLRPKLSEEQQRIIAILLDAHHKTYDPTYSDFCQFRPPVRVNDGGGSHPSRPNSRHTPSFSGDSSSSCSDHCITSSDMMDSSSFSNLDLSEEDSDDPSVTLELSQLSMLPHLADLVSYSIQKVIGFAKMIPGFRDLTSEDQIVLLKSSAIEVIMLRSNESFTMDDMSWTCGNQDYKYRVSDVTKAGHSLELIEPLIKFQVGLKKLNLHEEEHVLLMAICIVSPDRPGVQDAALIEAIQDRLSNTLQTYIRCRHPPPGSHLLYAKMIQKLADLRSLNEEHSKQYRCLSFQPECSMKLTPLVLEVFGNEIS
Experiment: intrinsic tryptophan fluorescence quenching titration
Assay type: binding

O=c1c(O)c(-c2ccc(O)c(O)c2)oc2cc(O)cc(O)c12 [quercetin]
Kd: 21.1 ± 4.31 µM

Reference: PMC4774501 (Biomolecules & Therapeutics, 2016)
